{
  "source": "patent US10946023B2",
  "about": "“Therapeutically active compounds and their methods of use” (Agios Pharmaceuticals, Inc., priority 2013, dated 2021)",
  "key": {"[1]": {"target": "IDH1-R132 homodimer enzyme (R132H) (Homo sapiens (Human), UniProt O75874, R132H)", "sequence (O75874 whole entry R132H)": "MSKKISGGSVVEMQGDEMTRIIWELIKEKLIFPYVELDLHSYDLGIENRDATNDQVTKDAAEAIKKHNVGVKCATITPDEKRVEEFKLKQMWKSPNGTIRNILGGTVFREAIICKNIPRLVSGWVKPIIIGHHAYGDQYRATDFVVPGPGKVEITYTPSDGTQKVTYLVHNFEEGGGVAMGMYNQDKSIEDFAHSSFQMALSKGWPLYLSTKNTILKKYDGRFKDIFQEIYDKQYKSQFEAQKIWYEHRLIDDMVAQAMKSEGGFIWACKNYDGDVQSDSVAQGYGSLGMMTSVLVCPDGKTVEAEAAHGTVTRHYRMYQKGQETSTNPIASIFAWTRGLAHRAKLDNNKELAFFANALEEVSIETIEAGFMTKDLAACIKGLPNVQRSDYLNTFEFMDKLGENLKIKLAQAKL", "assay": "IDH1 R132H homodimer NADPH depletion assay (Table 4 column 3)", "format": "biochemical", "experimental": "(§1) The following describes the experimental procedures that can be used to obtain data on columns 3 and 6 of Table 4.\n(§2) A test compound is prepared as 10 mM stock in DMSO and diluted to 50× final concentration in DMSO, for a 50 μl reaction mixture. IDH enzyme activity converting alpha-ketoglutarate to 2-hydroxyglutaric acid is measured using a NADPH depletion assay. In the assay the remaining cofactor is measured at the end of the reaction with the addition of a catalytic excess of diaphorase and resazurin, to generate a fluorescent signal in proportion to the amount of NADPH remaining. […] The reaction is started with the addition of 10 μl of Substrate Mix ([…], 5 mM alpha-ketoglutarate, in Assay Buffer) and the mixture is incubated for 90 minutes at room temperature."}, "[2]": {"target": "IDH1 R132C (Homo sapiens (Human), UniProt O75874, R132C)", "sequence (O75874 whole entry R132C)": "as the sequence (O75874 whole entry R132H) above, with H132C counted along it", "assay": "IDH1 R132C homodimer NADPH depletion assay (Table 4 column 6)", "format": "biochemical", "experimental": "as §1, §2\nThe concentration of NADPH and alpha-ketoglutarate in the Substrate Buffer is 20 μM and 1 mM, respectively."}, "[3]": {"target": "IDH1 wt/IDH1 R132H heterodimer (Homo sapiens (Human), UniProt O75874, R132H)", "sequence (O75874 whole entry R132H)": "as the sequence (O75874 whole entry R132H) above", "sequence (O75874 whole entry, stated change not applied)": "as the sequence (O75874 whole entry R132H) above, with H132R counted along it", "assay": "IDH1 wt/R132H heterodimer NADPH depletion (diaphorase/resazurin) assay", "format": "biochemical", "conditions": "read-out: IDH1 wt/R132H NADPH/NADP IC50 not saturated", "experimental": "The following describes the experimental procedures that can be used to obtain data on columns 2 and 4 of Table 4 and column 2 of Table 5.\nIn the primary reaction, the reduction of α-KG acid to 2-HG is accompanied by a concomitant oxidation of NADPH to NADP. The amount of NADPH remaining at the end of the reaction time is measured in a secondary diaphorase/resazurin reaction in which the NADPH is consumed in a 1:1 molar ratio with the conversion of resazurin to the highly fluorescent resorufin.\nThe mixture of compound, enzyme, and cofactor is pre-incubated at room temperature for 1 hr prior to the addition of alpha-ketoglutarate. To perform the secondary reaction, 10 uL of 1× buffer containing 36 μg/ml diaphorase and […] resazurin is added to the primary reaction and incubated for a further 5 minutes at 25° C. […] Compounds or compound dilutions are prepared in 100% DMSO concentration and diluted 1:50 into the final reaction. […] IC50s are determined.\nIDH1 or IDH2 wildtype (wt) and mutant heterodimers are expressed and purified by methods known in the art. […] Co-expression of IDH1wt-his and IDH1R132C-flag is carried out in sf9 insect cells. […] Cells are disrupted with 4 passes through an M-Y110 Micro fluidizer (Microfluidics) set to 500 psi, and then centrifuged at 22,000 rcf for 20 min at 4° C. […]"}, "[4]": {"test_system": "HT1080 cells", "assay": "HT1080 cellular assay, 2-HG by LC-MS (IDH1 R132C)", "format": "cell-based", "conditions": "Homo sapiens, HT-1080", "experimental": "The following describes the experimental procedures that can be used to obtain data on column 5 of Table 4.\nCells (HT1080 or U87MG) are grown in T125 flasks in DMEM containing 10% FBS, 1× penicillin/streptomycin and 500 ug/mL G418 (present in U87MG cells only). They are harvested by trypsin and seeded into 96 well white bottom plates at a density of 5000 cell/well in 100 ul/well in DMEM with 10% FBS. No cells are placed in columns 1 and 12. Cells are incubated overnight at 37° C. in 5% CO2. The next day test compounds are made up at 2× the final concentration and 100 ul are added to each cell well. The final concentration of DMSO is 0.2% and the DMSO control wells are plated in row G. The plates are then placed in the incubator for 48 hours. At 48 hours, 100 ul of media is removed from each well and analyzed by LC-MS for 2-HG concentrations. The cell plate is placed back in the incubator for another 24 hours. At 72 hours post compound addition, 10 mL/plate of Promega Cell Titer Glo reagent is thawed and mixed. The cell plate is removed from the incubator and allowed to equilibrate to room temperature. Then 100 ul of Promega Cell Titer Glo reagent is added to each well of media. The cell plate is then placed on an orbital shaker for 10 minutes and then allowed to sit at room temperature for 20 minutes. The plate is then read for luminescence with an integration time of 500 ms.\nHT1080 cells are maintained in RPMI containing 10% FBS, 1× penicillin/streptomycin. […] The next day compounds are prepared in 100% DMSO and then diluted in media for a final concentration of 0.2% DMSO. Media is removed from the cell plates and 200 μL of the compound dilutions are added to each well. […] The cell plates are then allowed to incubate another 24 hours."}, "[5]": {"target": "IDH2 R140Q (Homo sapiens (Human), UniProt P48735, R140Q)", "sequence (P48735 40-452 R140Q)": "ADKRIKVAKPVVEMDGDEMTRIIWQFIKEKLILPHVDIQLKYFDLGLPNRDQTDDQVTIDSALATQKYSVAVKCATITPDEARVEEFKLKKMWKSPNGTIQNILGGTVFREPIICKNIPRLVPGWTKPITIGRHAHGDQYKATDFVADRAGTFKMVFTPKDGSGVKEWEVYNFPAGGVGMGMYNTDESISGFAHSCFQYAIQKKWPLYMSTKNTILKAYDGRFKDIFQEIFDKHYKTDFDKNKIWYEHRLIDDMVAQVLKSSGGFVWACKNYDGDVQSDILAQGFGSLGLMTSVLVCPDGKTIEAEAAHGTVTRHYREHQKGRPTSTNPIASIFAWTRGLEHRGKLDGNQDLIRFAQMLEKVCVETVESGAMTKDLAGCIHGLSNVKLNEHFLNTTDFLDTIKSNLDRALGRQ", "assay": "IDH2 R140Q cofactor depletion assay (Table 4 column 7)", "format": "biochemical", "from_the_text": "The following describes the experimental procedures used to obtain data on column 7 of Table 4.\nThe reaction is terminated by the addition of a second enzyme, diaphorase, and a corresponding substrate, resazurin. Diaphorase reduces resazurin to the highly fluorescent resorufin with the concomitant oxidation of NADPH to NADP, both halting the IDH2 reaction by depleting the available cofactor pool and facilitating quantitation of the amount of cofactor remaining after a specific time period through quantitative production of an easily detected fluorophore.\nThe test compound is then incubated for one hour at room temperature with the enzyme; before starting the IDH2 reaction with the addition of 10 μl of substrate mix containing 4 μM NADPH and 1.6 mM α-KG in the buffer described above. After a further 16 hours of incubation at room temperature, the reaction is halted and the remaining NADPH measured through conversion of resazurin to resorufin by the addition of 25 μl Stop Mix (36 μg/ml diaphorase enzyme and 60 μM resazurin; in buffer)."}, "[6]": {"test_system": "U87MG pLVX-IDH2 R140Q-neo cells", "assay": "U87MG pLVX-IDH2 R140Q-neo cell based assay, 2-HG by LC-MS", "conditions": "Homo sapiens, U-87 MG"}},
  "data": [
    {"smiles": "Cc1cccc(-c2nc(NC3CCC(F)(F)CC3)nc(N[C@H](C)C3CC3)n2)n1", "note": "[Compound 50]", "values": [
      {"measurement": "IC50", "setting": "[1]", "result": "< 0.05", "unit": "µM"},
      {"measurement": "IC50", "setting": "[2]", "result": "0.05 to 0.1", "unit": "µM"},
      {"measurement": "IC50", "setting": "[3]", "result": "< 0.05", "unit": "µM"}
    ]},
    {"smiles": "N#CC1(c2cc(Nc3nc(N[C@H]4CCC(F)(F)C4)nc(-c4cccc(C(F)(F)F)n4)n3)ccn2)CC1", "note": "[Compound 133]", "values": [
      {"measurement": "IC50", "setting": "[4]", "result": "0.1 to 1", "unit": "µM"}
    ]},
    {"smiles": "N#CC1(c2cc(Nc3nc(N[C@@H]4CCC(F)(F)C4)nc(-c4cccc(C(F)(F)F)n4)n3)ccn2)CC1", "note": "[Compound 137]", "values": [
      {"measurement": "IC50", "setting": "[4]", "result": "0.05 to 0.1", "unit": "µM"}
    ]},
    {"smiles": "FC1(F)CCC(Nc2nc(NC3CCC(F)(F)C3)nc(-c3cncc(C(F)(F)F)n3)n2)C1", "note": "(centres unmarked) [Compound 138]", "values": [
      {"measurement": "IC50", "setting": "[4]", "result": "< 0.05", "unit": "µM"}
    ]},
    {"smiles": "N#CC1(c2cc(Nc3nc(NC4CCC(F)(F)C4)nc(-c4cccc(C(F)(F)F)n4)n3)ccn2)CC1", "note": "(centres unmarked) [Compound 151]", "values": [
      {"measurement": "IC50", "setting": "[4]", "result": "0.05 to 0.1", "unit": "µM"}
    ]},
    {"smiles": "FC1(F)CC[C@H](Nc2nc(Nc3ccnc(C(F)(F)F)c3)nc(-c3cccc(C(F)(F)F)n3)n2)C1", "note": "[Compound 158]", "values": [
      {"measurement": "IC50", "setting": "[4]", "result": "0.1 to 1", "unit": "µM"}
    ]},
    {"smiles": "FC1(F)CC[C@@H](Nc2nc(Nc3ccnc(C(F)(F)F)c3)nc(-c3cccc(C(F)(F)F)n3)n2)C1", "note": "[Compound 172]", "values": [
      {"measurement": "IC50", "setting": "[4]", "result": "0.05 to 0.1", "unit": "µM"}
    ]},
    {"smiles": "FC1(F)CCC(Nc2nc(Nc3ccnc(C(F)(F)F)c3)nc(-n3ccc(C(F)(F)F)n3)n2)C1", "note": "(centres unmarked) [Compound 173]", "values": [
      {"measurement": "IC50", "setting": "[4]", "result": "0.05 to 0.1", "unit": "µM"}
    ]},
    {"smiles": "N#CC1(c2cc(Nc3nc(N[C@H]4CCC(F)(F)C4)nc(-n4ccc(C(F)(F)F)n4)n3)ccn2)CC1", "note": "[Compound 174]", "values": [
      {"measurement": "IC50", "setting": "[4]", "result": "0.05 to 0.1", "unit": "µM"}
    ]},
    {"smiles": "CC(Nc1nc(Nc2ccnc(C(F)(F)F)c2)nc(-n2ccc(C(F)(F)F)n2)n1)C(F)(F)F", "note": "(centres unmarked) [Compound 177]", "values": [
      {"measurement": "IC50", "setting": "[4]", "result": "0.05 to 0.1", "unit": "µM"}
    ]},
    {"smiles": "FC1(F)CCC(Nc2nc(Nc3ccnc(C(F)(F)F)c3)nc(-c3cccc(C(F)(F)F)n3)n2)C1", "note": "(centres unmarked) [Compound 178]", "values": [
      {"measurement": "IC50", "setting": "[4]", "result": "0.1 to 1", "unit": "µM"}
    ]},
    {"smiles": "N#CC1(c2cc(Nc3nc(NC4CCC(F)(F)C4)nc(-n4ccc(C(F)(F)F)n4)n3)ccn2)CC1", "note": "(centres unmarked) [Compound 185]", "values": [
      {"measurement": "IC50", "setting": "[4]", "result": "0.05 to 0.1", "unit": "µM"}
    ]},
    {"smiles": "FC1(F)CC(Nc2nc(Nc3ccnc(C(F)(F)F)c3)nc(-c3cccc(C(F)(F)F)n3)n2)C1", "note": "[Compound 190]", "values": [
      {"measurement": "IC50", "setting": "[4]", "result": "0.1 to 1", "unit": "µM"}
    ]},
    {"smiles": "CC(C)(O)CNc1nc(Nc2ccnc(C(F)(F)F)c2)nc(-c2cccc(C(F)(F)F)n2)n1", "note": "[Compound 288]", "values": [
      {"measurement": "IC50", "setting": "[5]", "result": "0.1 to 1", "unit": "µM"},
      {"measurement": "IC50", "setting": "[6]", "result": "0.1 to 1", "unit": "µM"},
      {"measurement": "IC50", "setting": "[3]", "result": "0.1 to 1", "unit": "µM"}
    ]},
    {"smiles": "N#CC1(c2cc(Nc3nc(N[C@@H]4CCC(F)(F)C4)nc(-n4ccc(C(F)(F)F)n4)n3)ccn2)CC1", "note": "[Compound 350]", "values": [
      {"measurement": "IC50", "setting": "[4]", "result": "0.05 to 0.1", "unit": "µM"}
    ]},
    {"smiles": "FC1(F)CC[C@H](Nc2nc(Nc3ccnc(C(F)(F)F)c3)nc(-n3ccc(C(F)(F)F)n3)n2)C1", "note": "[Compound 393]", "values": [
      {"measurement": "IC50", "setting": "[4]", "result": "0.1 to 1", "unit": "µM"}
    ]},
    {"smiles": "FC1(F)CC[C@@H](Nc2nc(N[C@H]3CCC(F)(F)C3)nc(-c3cncc(C(F)(F)F)n3)n2)C1", "note": "[Compound 399]", "values": [
      {"measurement": "IC50", "setting": "[4]", "result": "< 0.05", "unit": "µM"}
    ]},
    {"smiles": "FC1(F)CC[C@H](Nc2nc(N[C@H]3CCC(F)(F)C3)nc(-c3cncc(C(F)(F)F)n3)n2)C1", "note": "[Compound 406]", "values": [
      {"measurement": "IC50", "setting": "[4]", "result": "< 0.05", "unit": "µM"}
    ]},
    {"smiles": "FC1(F)CC[C@@H](Nc2nc(N[C@@H]3CCC(F)(F)C3)nc(-c3cncc(C(F)(F)F)n3)n2)C1", "note": "[Compound 410]", "values": [
      {"measurement": "IC50", "setting": "[4]", "result": "< 0.05", "unit": "µM"}
    ]}
  ]
}
